In patent US20120232113A1, “METHODS OF TREATING EMESIS USING GROWTH HORMONE SECRETAGOGUES” (HELSINN THERAPEUTICS (U.S.), INC., priority 2007, published 2012):
Square brackets hold non-standard residues; d marks the D form. Ends that are not written are not given here. Peptide text beside a SMILES is read from it. d2Nal = N[C@H](Cc1ccc2ccccc2c1)C(=O)O; Aib = CC(C)(N)C(=O)O

How the values were obtained:
[1] = tested on: ferrets treated with cisplatin; assay: Anti-emetic response assay in ferrets treated with cisplatin; assay type: in vivo, ferret; conditions: for average vomiting episodes during the 4-hour observation period / average retching episodes during the 4-hour observation period: cisplatin 10 mg/kg i.p., two i.v. injections 30 min apart, ghrelin 0.25, ipamorelin 1.0 mg/kg/dose; for average vomiting episodes during the 4-hour observation period: saline control 1.78; for average retching episodes during the 4-hour observation period: saline control 4.89; for anti-emetic efficacy relative to control animals, conclusion in words: i.v., ghrelin 0.25 mg/kg/dose, ipamorelin 1.0 mg/kg/dose; for onset time of emetic response following cisplatin administration (latent period): vs saline control, 4-hour observation
Source text: The purpose of this study was to evaluate the anti-emetic response of Ipamorelin following a single intravenous injection (slow bolus) in ferrets treated with cisplatin.
30 male ferrets (24-weeks old) were used in this experiment. Subsequent to arrival, all animals were subjected to a general physical examination by a qualified member of the veterinary staff to ensure normal health status. An acclimation period of at least one week was allowed between the animal receipt and the start of treatment in order to accustom the animals to the laboratory environment.
Animals were randomized into the following groups:
Dosing occurred on consecutive days with approximately equal numbers of animals from each group being dosed on each day. Immediately following a single intraperitoneal injection of cisplatin, the controUreference/test article was administered via a slow intravenous injection via the cephalic or saphenous vein. Thirty minutes later, a second slow intravenous injection of the controUreference/test article was administered via a slow intravenous injection via the cephalic or saphenous vein. On each occasion, the dose volume was 5 mL/kg (cisplatin as well as control/reference/test article) and the actual dose administered was based on the most recent practical body weight of each animal.
Following dosing, the ferrets were monitored and observed for episodes of emesis for an approximate four hour period, which was subdivided into 10-minute intervals. The time prior to the first episode of retching or vomiting was recorded (latent period), as well the total number of retching and vomiting periods, over each 10-minute interval, through the overall observation period (4 hours post dose).
For the purposes of this study, episodes of emesis were defined as rhythmic abdominal contractions associated with oral expulsion of solid or liquid material from the gastrointestinal tract (i.e. vomiting) or not associated with the passage of material (i.e. retching). An episode of retching and/or vomiting was considered separate when an animal changed position in the cage or when the interval between retches and/or vomits exceeds an approximate 5 second period.
The anti-emetic response was evaluated using the individual observation for: the latent period, the average of retching episodes per 10-minute interval with presence of retching, the average of vomiting episodes per 10-minute interval with presence of vomiting, the total frequency of retching episodes for the observation period, the total frequency of vomiting episodes for the observation period, the total number of 10-minute intervals with presence of retching and the total number of 10-minute intervals with presence of vomiting. Whenever there was no retching or vomiting episode for the whole animal observation period, the latent period was set to 4 hours and the average of retching/vomiting episodes per interval with presence of retching/vomiting was set to zero. Each of these seven parameters was submitted to the following statistical comparison.
The non-parametric Kruskal-Wallis test was used to compare all considered groups. If the Kruskal-Wallis test was significant (p<0.05), then the Saline Control group was compared to each treated group using Dunn's test.

cancer patients [2] = assay: Separate crossover study (3 days treatment), ASAS nausea symptom scale; assay type: in vivo, human
Description: (§1) The effect of RC-1291 administered to cancer patients was compared to the effect of placebo administered to a similar group of patients. In order to determine the ability of RC-1291 to reduce a subject's cancer symptom burden, i.e. Quality-of-Life, subjects were administered the Anderson Symptom Assessment System (ASAS) test prior to, during and at the completion of the study. The ASAS test is conducted by asking subjects to rate on a 0-10 scale the severity of 10 symptoms: pain, fatigue, nausea, depression, anxiety, drowsiness, shortness of breath, appetite, sleep and feeling of well being (see, Palmer et al. (2005) J. Pain and Symptom Management 6:565-571). The text below reflects and inversion of the ASAS scores such that higher values reflect a better Quality-of-Life:
In a separate crossover study, 16 cancer patients were treated with RC-1291 or placebo as described above for 3 days, washed out for ˜5 days and then administered placebo or RC-1291 (whichever one they had not received in the initial 3 day period). 12 of 16 placebo group subjects and 11 of the 16 RC-1291 group subjects were receiving some form of chemotherapy.

cancer patients [3] = assay: 12 week double blind, placebo controlled, randomized parallel study, Anderson Symptom Assessment System (ASAS) test; assay type: in vivo, human; conditions: 12 weeks
Source text: A double blind, placebo controlled, randomized study was designed to investigate the ability of growth hormone secretagogues to be used for the treatment of emetic conditions.
82 human subjects were enrolled in a 12 week parallel study. Of the 82 subjects, 74 subjects were classified in the intent to treat group (ITT). These 74 subjects all had active cancer, received at least one dose of study medication, and had at least one post-dose efficacy measurement. The 74 subjects were separated into two groups: the placebo group and the RC-1291 group. 30 of the 36 placebo group subjects and 33 of the 38 RC-1291 group subjects were receiving some form of chemotherapy. The RC-1291 group received 50 mg of RC-1291 in two 25 mg capsules daily. The placebo group received two capsules daily.
as §1, with “Quality-of-Life: […]” for “Quality-of-Life:”

Compound	average vomiting episodes during the 4-hour observation period [1]	average retching episodes during the 4-hour observation period [1]	anti-emetic efficacy relative to control animals, conclusion in words [1]	reduction in number of retching episodes compared to saline control animals ([1]; ipamorelin 1.0 mg/kg/dose i.v., p<0.05) [%]	reduction in vomiting episodes relative to saline control animals ([1]; ipamorelin 1.0 mg/kg/dose i.v., p>0.05)	onset time of emetic response following cisplatin administration (latent period) [1]	onset of anti-nausea effects (cancer patients [2]) [days]	ASAS nausea symptom scale, overall difference between treatments (cancer patients [2]; RC-1291 vs placebo, p=0.0756)	nausea (ASAS nausea symptom scale), result in words (cancer patients [2]; increased nausea with placebo)	increase in total ASAS score relative to baseline (cancer patients [3]; 50 mg daily in two 25 mg capsules, inverted ASAS scores (higher = better Quality-of-Life), placebo decrease of 5.13)	overall difference in total ASAS score between the two groups (cancer patients [3]; RC-1291 50 mg daily vs placebo, p-0.0287)	ASAS nausea symptom scale, overall difference between treatment groups (cancer patients [3]; RC-1291 50 mg daily vs placebo, p=0.0046)
CC(C)(N)C(=O)N[C@@H](Cc1c[nH]cn1)C(=O)N[C@H](Cc1ccc2ccccc2c1)C(=O)N[C@H](Cc1ccccc1)C(=O)N[C@@H](CCCCN)C(N)=O [Ipamorelin] (H-[Aib]H[d2Nal][dF]K-NH2)	0.75	1.14	significantly decreased the number of retching episodes	82	failed to reach statistical significance	modest, non-statistically significant (p>0.05) delay						
CN(C)N(C)C(=O)[C@@]1(Cc2ccccc2)CCCN(C(=O)[C@@H](Cc2c[nH]c3ccccc23)NC(=O)C(C)(C)N)C1 [RC-1291]							≤ 3	0.71	Decreased nausea	1.52	6.66	1.46
Ghrelin: ghrelin peptide, reference article in the ferret study (GSSFLSPEHQRVQQRKESKKPPAKLQPR; ends and bridges not checked; UniProt Q9UBU3 24-51, looked up) [reference compound]	1.60	7.00	did not display a significant efficacy			Neither the onset time nor the numbers of retches or vomits were statistically different						
